Results as given in patent EP0112685A1, “Compounds containing beta-lactams” (BEECHAM GROUP PLC, priority 1982, dated 1984).

Assay: Blood levels in mice after oral or subcutaneous administration, assayed by biological β-lactamase inhibition-zone technique
Type: in vivo
Conditions: for concentration at 0.5 h: 30 mins after administration; for concentration at 0.75 h: 45 mins after administration; for concentration at 1 h: 60 mins after administration; for concentration at 1.5 h: 90 mins after administration; for concentration at 2 h: 120 mins after administration; for AUC: mice
Procedure: The compound of Example 4 was administered either orally (by gastric lavage) or subcutaneously as a solution to groups of mice. At intervals after administration, 5 mice which had received the compound subcutaneously and 10 mice which had received the compound orally were sacrificed, and blood collected from the axillary region. The blood was assayed for content of compound 4 using a biological β-lactamase inhibition-zone assay technique. The mean values (+ standard deviation - SD) are tabulated below.

[1] = mouse, blood, sc, subcutaneous administration, 10 mg/kg, average for 5 mice
[2] = mouse, blood, oral administration, 20 mg/kg, average for 10 mice

Structure (SMILES): O=C(O)C1C(=CCOCCCl)OC2CC(=O)N21 (stereo not shown) [Example 4, Lithium 9-0-(2-chloroethyl)clavulanate]
- levels in the blood of mice (administered by either an oral or parenteral route, result in words): high and prolonged levels
- concentration at 10 min (mouse, blood, sc, subcutaneous administration, 10 mg/kg, 10 mins after administration, average for 5 mice): 22800 ng/mL
- concentration at 20 min (mouse, blood, sc, subcutaneous administration, 10 mg/kg, 20 mins after administration, average for 5 mice): 17300 ng/mL
- concentration at 0.5 h [1]: 13300 ng/mL
- concentration at 0.75 h [1]: 7700 ng/mL
- concentration at 1 h [1]: 5200 ng/mL
- concentration at 1.5 h [1]: 2700 ng/mL
- concentration at 2 h [1]: 1800 ng/mL
- concentration at 0.25 h (mouse, blood, oral administration, 20 mg/kg, 15 mins after administration, average for 10 mice): 16600 ng/mL
- concentration at 0.5 h [2]: 10500 ng/mL
- concentration at 0.75 h [2]: 7940 ng/mL
- concentration at 1 h [2]: 7420 ng/mL
- concentration at 1.5 h [2]: 3910 ng/mL
- concentration at 2 h [2]: 3200 ng/mL
- AUC (mouse, sc, subcutaneous administration, 10 mg/kg, blood): 15100 ng·h/mL
- AUC (mouse, oral administration, 20 mg/kg, blood): 14300 ng·h/mL
